Source: article PMC5915154, “Aloe-emodin as drug candidate for cancer therapy” (Oncotarget, 2018)
pIC50: −log10 of the molar value.

How the values were obtained:
[1] = test system: CCRF-CEM cells; test: Annexin V/PI detection of apoptosis and necrosis; format: cell-based, human
Source text: A commercial annexin V/PI detection apoptosis kit was used to detect early apoptosis and necrosis according to the manufacturer’s instructions (Life Technologies, Carlsbad, CA, USA). Annexin V is a calcium-dependent phospholipid-binding protein, which binds to phosphatidylserine (PS). PS is predominantly located at the inner side of the plasma membrane under normal conditions and moves to outer surface of the membrane upon the onset of early apoptosis. This can be detected FITC-labeled annexin V. PI is a marker of late apoptosis and necrosis. We treated aliquots of 1×10^6 CCRF-CEM cells with 0.5-, 1-, 2- and 4-fold IC50 of Aloe-emodin for 48, 72 or 96 h, respectively. After washing the cells with PBS, they were stained with annexin V/FITC at room temperature for 10-15 min. Subsequently, cells were washed again and stained with PI in the dark. Then, the results were analyzed by a BD Accuri™ C6 flow cytometer at excitation wavelength 488 nm and emission wavelength 530 nm to record annexin V/FITC signals. The fluorescence of PI was detected at 488 nm excitation and was measured by a 610/20 nm band pass filter. At least three independent experiments were performed..

[2] = test system: U87.MG glioblastoma cells; test: Resazurin reduction assay, U87.MG; format: cell-based; details: Homo sapiens, U-87 MG, 72 h
Source text: (§1) The cell lines used in the present work, their origins and maintenance conditions were previously reported. In brief, drug-sensitive CCRF-CEM and multidrug resistant P-glycoprotein-over-expressing CEM/ADR5000 leukemia cells, MDA-MB-231-pcDNA3 breast cancer cells and their transfectant subline MDA-MB-231-BCRP clone 23, HCT116 (p53^+/+) colon cancer cells and its knockout clone HCT116 (p53^-/-), U87.MG glioblastoma multiform cells and their transfectant subline U87.MGΔEGFR as well as HEK293 human embryonic kidney cells transfected with or without a cDNA for ABCB5 were used. The human peripheral mononuclear cells (PMNC) were isolated from fresh blood samples of a healthy donor by using Histopaque® (Sigma-Aldrich, Taufkirchen, Germany).
(§2) Resazurin reduction assay was conducted to test the cytotoxicity of the compounds. This assay is based on the reduction of resazurin to resorufin by viable cells. […] Briefly, aliquots of 0.5×10^4 adherent cells which were allowed to attach overnight and 1×10^4 suspension cells per well were seeded in 96-well-plates with or without the addition of varying concentrations of the test substance to get a total volume of 200 μL/well. After 72 h incubation and addition of resazurin (Sigma-Aldrich) for 4 h, staining was measured by an Infinite M2000 ProTM plate reader (Tecan, Germany) using an excitation wavelength of 544 nm and an emission wavelength of 590 nm. […]

[3] = test system: drug-sensitive wild-type cell lines; test: Resazurin reduction assay, range over drug-sensitive wild-type cell lines; format: cell-based; details: Homo sapiens
Source text: as §1, §2

[4] = test system: drug-resistant sublines; test: Resazurin reduction assay, range over drug-resistant and/or transfected sublines; format: cell-based; details: Homo sapiens
Source text: as §1, §2

[5] = test system: CCRF-CEM cells; test: Alkaline comet assay (DNA damage); format: cell-based, human; details: 1-, 2- or 4-fold IC50, 24 h
Experimental: The OxiSelect™ Comet Assay Kit (Cell Biolabs/Biocat, Heidelberg, Germany) was used to detect DNA damage according to the manufacturer’s instructions. CCRF-CEM cells treated with 1-, 2- and 4-fold IC50 of Aloe-emodin for 24 h. Then, the cells were mixed with agarose and applied to OxiSelect™ Comet Assay slides. These slides including the embedded cells were treated with lysis buffer and alkaline solution. Subsequently, electrophoresis was performed on the slide with a voltage of 22 V for 30 min corresponding to 1 V/cm of the electrophoresis chamber. These slides were washed with distilled water. After fixation with 70% ethanol, the slides were stained with by a fluorescent DNA binding dye.
Then, the slides were photographed by a fluorescence microscope (EVOSs FL Cell Image System, Thermo Fisher Scientific Waltham, USA) using a FITC filter with an excitation wavelength of 490 nm and emission at 520 nm. At least 50 cells per image were randomly selected and analyzed with the OpenComet software (http://www.cometbio.org). Percentages of tail DNA, tail moment and olive moment were assessed as parameters for DNA damage. The statistical significance was determined by one-way ANOVA with Tukey’s multiple comparison test.

[6] = test system: drug-sensitive CCRF-CEM leukemia cells; test: Resazurin reduction assay, CCRF-CEM; format: cell-based; details: Homo sapiens, 72 h
Source text: as §1
Resazurin reduction assay was conducted to test the cytotoxicity of the compounds. This assay is based on the reduction of resazurin to resorufin by viable cells. […] Briefly, aliquots of 0.5×10^4 adherent cells which were allowed to attach overnight and 1×10^4 suspension cells per well were seeded in 96-well-plates with or without the addition of varying concentrations of the test substance to get a total volume of 200 μL/well. After 72 h incubation and addition of resazurin (Sigma-Aldrich) for 4 h, staining was measured by an Infinite M2000 ProTM plate reader (Tecan, Germany) using an excitation wavelength of 544 nm and an emission wavelength of 590 nm. Each assay was independently performed for at least three times, with six parallel replicates each. The protocol has been recently reported. Fifty percent inhibition concentrations (IC50) represent the drug concentrations required to inhibit 50% of cell proliferation, which were fitted with nonlinear regression using GraphPad® Prism7.

[7] = test system: HEK293-ABCB5 cells; test: Resazurin reduction assay, HEK293-ABCB5; format: cell-based; details: Homo sapiens, 72 h
Source text: as §1, §2

[8] = test system: HEK293 human embryonic kidney cells; test: Resazurin reduction assay, HEK293; format: cell-based; details: 72 h
Source text: as §1, §2

[9] = test system: CCRF-CEM cells; test: Detection of reactive oxygen species (H2DCFH-DA, flow cytometry); format: cell-based, human
Experimental: 2′,7′-Dichlorofluorescin diacetate (H2DCFH-DA, Sigma-Aldrich) is a cell-permeable non-fluorescent probe used to detect cellular ROS levels. In the presence of ROS, the compound is de-esterified intracellularly and converts into the highly fluorescent 2′,7′-dichlorofluorescein upon oxidation. Thus, it can be measured by flow cytometry. CCRF-CEM cells were re-suspended in PBS and incubated for 30 min withH2DCFH-DA at a concentration of 2 μM. After washing with PBS, the cells were treated with DMSO as negative control, H2O2 and doxorubicin as positive controls or varying concentrations of Aloe-emodin (0.5-, 1-, 2- and 4-fold IC50) for 1 h. The results were assessed by a BD Accuri™ C6 flow cytometer (Becton Dickinson) using FL-1 the channel (488 nm excitation). For each sample, 10^4 cells were counted. The protocol has been recently reported by us.

[10] = test system: U87.MGΔEGFR cells; test: Resazurin reduction assay, U87.MGΔEGFR; format: cell-based; details: Homo sapiens, 72 h
Source text: as §1, §2

SMILES: O=C1c2cccc(O)c2C(=O)c2c(O)cc(CO)cc21 [Aloe-emodin]
- apoptotic or necrotic cell death ([1]; 2- or 4-fold IC50, 96 h): early and late apoptosis as well as early and late necrosis
- apoptotic or necrotic cell death ([1]; 4-fold IC50, 72 h): early and late apoptosis as well as early and late necrosis
- pIC50 [2]: 4.66
- pIC50 ([3]; drug-sensitive wild-type cell lines HCT116(p53+/+), U87.MG, MDA-MB-231-pcDNA, HEK293): 4.65 to 4.78
- pIC50 ([3]; drug-sensitive wild-type cell lines incl. CCRF-CEM (abstract)): 4.65 to 5.01
- pIC50 [4]: 4.47 to 4.95
- DNA damage (comet tails, tail DNA %, tail and olive tail moment) [5]: induced DNA damage in a dose-dependent manner
- pIC50 [6]: 5.01
- pIC50 [7]: 4.59
- pIC50 [8]: 4.77
- ROS production, fold changes ([9]; 0.5-, 1-, 2- or 4-fold IC50, 1 h, dose-dependent): ≥ 1.5 fold
- ROS generation compared with positive controls ([9]; 1 h, vs doxorubicin (1 μM) or H2O2 (250 μM)): even higher ROS generation than doxorubicin
- pIC50 [10]: 4.47
